Laboratory results from article PMC7356787, “Structure-Activity Relationships for the Anaesthetic and Analgaesic Properties of Aromatic Ring-Substituted Ketamine Esters” (Molecules, 2020).

Experiments:
[1] = test system: rats; experiment: Pedal withdrawal reflex (PWR) scoring during intravenous infusion (analgaesic potency); format: in vivo; details: rat, i.v. infusion, dose to PWR = 1, mean (SEM), read-out: Analgaesia potency: minimal dose for loss of pedal withdrawal reflex (SEM)
Method: (§1) The compounds were evaluated for their ability to anaesthetise rats when administered by continuous intravenous infusion, as reported previously. Compounds were administered to initially deliver 20 mg/kg/min (weight-adjusted flow) to achieve a pedal withdrawal reflex score (PWR = 1), then titrated to maintain loss of righting reflex (LORR) for 10 min. Three rats were used in each study, with each group of rats also acting as their own ketamine control. Data were collected on the total dose of drug (mg/kg), to achieve LORR and a PWR = 1, and on the time (in seconds, from cessation of the infusion) to recovery of righting reflex (RORR) (recovery from the hypnotic anaesthesia effect). Given the complexity of the experimental protocol, the total dose for LORR (Table 1) is very consistent, with ranges of only 1.5-fold within each group. The consistency of the post-sedation recovery times are expectedly lower, with ranges of about 2.5-fold. During recovery the rats were monitored for multiple signs of behavioural dysfunction (see biology section for details) and the sum of these scores (from 0 to 4, with 0 being no effect and 4 being severe dysfunction) is given in Table 2. IC50 values for inhibition of the NMDA receptor were conducted by Eurofins PanLabs, Taiwan.
(§2) All animal experiments were conducted at the Ruakura Research Centre, Hamilton, New Zealand, using experimental protocols reviewed and approved by the Ruakura Animal Ethics Committee (ethics ref 12604/13786). Adult female Sprague-Dawley rats of approximately 250–350 g were evaluated in both anaesthetic and analgaesic study protocols. All study agents were delivered by tail vein cannula connected via minibore extension tubing to mechanised infusion pump.
(§3) Following acquisition of baseline physiologic parameters (heart rate, respiratory rate, PWR, and righting reflex (RR)) ketamine or an experimental compound at 10mg/mL were commenced at a rate (weight-adjusted) to deliver 20 mg/kg/min. Dose to loss of righting reflex (LORR see below), and subsequent pedal withdrawal score of 1 (PWR see below) were recorded. Following attaining a PWR of 1, infusion rate was reduced to 6.7 mg/kg/min, then titrated in an up-and-down fashion as required to maintain both dorsal recumbency, and a PWR = 1, to 10 min before cessation. Each study used three rats, with each group of rats also acting as their own ketamine control. Prior odds/evens randomisation determined the order of study drug administration was determined by with a recovery interval of at least three hours afforded between experiments. Records of PWR and RR were made at one-minute intervals throughout, from cessation of infusion to return of righting reflex (RORR), and from cessation of infusion to the animals displaying independent locomotion (walk).
Pedal Withdrawal Reflex (PWR) scoring: Nociceptive testing in animals was conducted via 1 s application of constant pressure (firm digital pressure) over the forepaw of the animal. Pedal withdrawal reflex testing is primarily used to assess analgaesic effect, and responses are graded accordingly: 0, absent; 1, flicker; 2, moderate withdrawal; 3, fast withdrawal; 4, Fast withdrawal with cry/preceding apnoea (modified from).

[2] = test system: rats; experiment: Anaesthetic assessment by continuous intravenous infusion in rats (loss and return of righting reflex); format: in vivo; details: rat; for minimal effective dose: iv, i.v. infusion starting at 20 mg/kg/min, measure of sedative potency, mean (SEM), read-out: Sedation LORR: minimal dose for loss of righting reflex (SEM)
Method: as §1, §2, §3
Loss of Righting Reflex (LORR): This is primarily used to assess anaesthetic hypnotic effect. Righting reflex is judged absent when the rat fails to right from a position of dorsal recumbency to a position of sternal recumbency on three attempts performed in rapid succession. Dose to LORR is termed effective potency.

[3] = test system: rats; experiment: Tail flick analgaesic assessment (composite tail flick latency, cTFL); format: in vivo; details: rat, 20 mg/kg i.v. infused over 10 min; AUC of %MPE-time curve 0-60 min; measure of analgaesic magnitude/duration
Method: Analgaesic assessment protocol: Animal preparation was in accord with the anaesthetic assessment protocol above. Three rats were used in each study. Following venous cannulation, animals underwent infusion of ketamine or experimental compound at 20 mg/kg over a ten minute interval. A tail flick analgaesia meter (Colombus Instruments, Colombus, Ohio) was then used to determine thermal pain sensitivity. Radiant heat was applied using a shutter-controlled lamp as a heat source focused on a spot located 6–8 cm from the tip of the tail. The intensity of the beam was set at a level producing basal latency times between 2 and 4 s. To prevent thermal tissue injury the cut off time as set at 10 s. A digital response time indicator with a resolution of 0.1s measured the time from initiation of stimulus until tail withdrawal (the flick; TFL).
The TFL response following infusion of control and study drugs was calculated as a percentage of the maximum possible effect (MPE) such that:%MPE = [TFL (post-drug) – TFL (pre-drug)/10 s – TFL (pre-drug)] × 100%(1)
TFL latency was recorded at 5 min intervals from cessation of study drug infusion (time zero) to 60 min. Individual %MPE-time curves were constructed for each animal, and the area under the curve (AUC) adopted as a composite measure of induced analgaesia (cTFL).

[4] = target: N-methyl-D-aspartate receptor; experiment: Inhibition of the NMDA receptor (Eurofins Panlabs Taiwan); format: binding; details: conducted by Eurofins Panlabs Taiwan
Method: as §1

[5] = test system: rats; experiment: Behavioural dysfunction scoring during recovery from infusion; format: in vivo; details: rat, during wake-up; sum score 0 (no effect) to 4 (severe dysfunction); mean (SEM)
Method: as §1
Behavioural dysfunction scoring: This was undertaken according to the following table. Observations were made over a one minute interval every five minutes from cessation of infusion until return of normal behaviours (total score = 0). A score of 1 was accorded for any positive behavioural aberration for each of four categories (maximal score 4) during wake-up.
Duration of any behavioural aberration was recorded from RORR as follows: score 0 = nil; score1 = 0–120 s; score 2 = 121–300 s; score 3 = 301–600 s; score 4 = 600+ s.

| SMILES | minimal effective dose [1] | minimal effective dose [2] | Analgaesia cTFL (composite tail flick latency) [3] | IC50 [4] | Behavioural dysfunction Score (SEM): severity on recovery [5] | Seizure-inducing effect during infusion ([2]; i.v. infusion in anaesthetic assessment protocol) |
| --- | --- | --- | --- | --- | --- | --- |
| CC(C)OC(=O)CCNC1(c2ccccc2)CCCCC1=O (stereo not drawn) [3a] | > 200 mg/kg | > 200 mg/kg | 0 s | > 1000 µM | 0.5 (0.7) |  |
| COC(=O)CCCCNC1(c2ccccc2)CCCCC1=O (stereo not drawn) [3b] | 45 mg/kg | 40 mg/kg | 0 s | 9.9 µM | 1 (0) |  |
| CC(C)OC(=O)CCNC1(c2ccccc2F)CCCCC1=O (stereo not drawn) [4a] | 62 mg/kg | 59 mg/kg | 1297 s | 249 µM | 1 (0) |  |
| COC(=O)CCCCNC1(c2ccccc2F)CCCCC1=O (stereo not drawn) [4b] | 40 mg/kg | 35 mg/kg | 11 s | 3.1 µM | 3 (1.4) |  |
| Cc1ccccc1C1(NCCC(=O)OC(C)C)CCCCC1=O (stereo not drawn) [6a] | > 200 mg/kg | > 200 mg/kg | 393 s | 428 µM | 0 (0) |  |
| COC(=O)CCCCNC1(c2ccccc2C)CCCCC1=O (stereo not drawn) [6b] | 43 mg/kg | 37 mg/kg | 91 s | 3.4 µM | 1 (0) |  |
| COc1ccccc1C1(NCCC(=O)OC(C)C)CCCCC1=O (stereo not drawn) [7a] | > 200 mg/kg | > 200 mg/kg | 313 s | 172 µM | 0 (0) |  |
| COC(=O)CCCCNC1(c2ccccc2OC)CCCCC1=O (stereo not drawn) [7b] | 49 mg/kg | 34 mg/kg | 2332 s | > 1000 µM | 3 (1) |  |
| CC(C)OC(=O)CCNC1(c2ccccc2C(F)(F)F)CCCCC1=O (stereo not drawn) [8a] | 64 mg/kg | 64 mg/kg | 652 s | 290 µM | 2 (1) |  |
| COC(=O)CCCCNC1(c2ccccc2C(F)(F)F)CCCCC1=O (stereo not drawn) [8b] | 156 mg/kg | 154 mg/kg | 1864 s | 128 µM | 1 (0) |  |
| CC(C)OC(=O)CCNC1(c2ccccc2OC(F)(F)F)CCCCC1=O (stereo not drawn) [9a] | 62 mg/kg | 62 mg/kg | 80 s | 184 µM | 1 (0) |  |
| COC(=O)CCCCNC1(c2ccccc2OC(F)(F)F)CCCCC1=O (stereo not drawn) [9b] | > 200 mg/kg | > 200 mg/kg | 119 s | 121 µM | 3 (1) |  |
| CC(C)OC(=O)CCNC1(c2cccc(Cl)c2)CCCCC1=O (stereo not drawn) [10a] | 58 mg/kg | 67 mg/kg | 332 s | 164 µM | 1 (0) |  |
| COC(=O)CCCCNC1(c2cccc(Cl)c2)CCCCC1=O (stereo not drawn) [10b] | 61 mg/kg | 51 mg/kg | 54 s | 13 µM | 3 (1) |  |
| Cc1cccc(C2(NCCC(=O)OC(C)C)CCCCC2=O)c1 (stereo not drawn) [11a] | 50 mg/kg | 38 mg/kg | 63 s | 466 µM | 2 (1) |  |
| COC(=O)CCCCNC1(c2cccc(C)c2)CCCCC1=O (stereo not drawn) [11b] | 43 mg/kg | 39 mg/kg | 104 s | 5.2 µM | 2 (1) |  |
| COc1cccc(C2(NCCC(=O)OC(C)C)CCCCC2=O)c1 (stereo not drawn) [12a] | 83 mg/kg | 79 mg/kg | 284 s | 201 µM | 2 (0) |  |
| COC(=O)CCCCNC1(c2cccc(OC)c2)CCCCC1=O (stereo not drawn) [12b] | 58 mg/kg | 50 mg/kg | 210 s | 5.6 µM | 3 (1.4) |  |
| CC(C)OC(=O)CCNC1(c2cccc(C(F)(F)F)c2)CCCCC1=O (stereo not drawn) [13a] | > 200 mg/kg | > 200 mg/kg | 208 s | 229 µM | 0 (0) |  |
| COC(=O)CCCCNC1(c2cccc(C(F)(F)F)c2)CCCCC1=O (stereo not drawn) [13b] | > 200 mg/kg | > 200 mg/kg | 8 s | 172 µM | 0 (0) |  |
| CC(C)OC(=O)CCNC1(c2cccc(OC(F)(F)F)c2)CCCCC1=O (stereo not drawn) [14a] | > 200 mg/kg | > 200 mg/kg | 274 s | 211 µM | 0 (0) |  |
| COC(=O)CCCCNC1(c2cccc(OC(F)(F)F)c2)CCCCC1=O (stereo not drawn) [14b] | > 200 mg/kg | > 200 mg/kg | 444 s | 57 µM | 0 (0) |  |
| CC(C)OC(=O)CCNC1(c2ccc(Cl)cc2)CCCCC1=O (stereo not drawn) [15a] | > 200 mg/kg | 99 mg/kg | 491 s | 129 µM | 2 (1) |  |
| COC(=O)CCCCNC1(c2ccc(OC)cc2)CCCCC1=O (stereo not drawn) [17b] |  |  | 551 s | 94.1 µM | 3 (0) | seizure-inducing effect |
| COC(=O)CCCCNC1(c2cccs2)CCCCC1=O (stereo not drawn) [20b] | 74 mg/kg | 52 mg/kg | 196 s | 8.9 µM |  |  |
